pKi: −log10 of the molar value.

The first test addresses T1, NMDA (N-methyl-D-aspartate) receptors (Rattus norvegicus, UniProt P35439).
T1 construct: isolated membrane material from rat cerebra; from tissue; host or cells: rat cerebrum membranes
Kind of test: Binding of 3H-5,7-dichlorokynurenic acid (displacement from rat cerebra membrane material). The following applies: displacement of 3H-5,7-dichlorokynurenic acid, rat cerebra membranes, pH 7.4, on ice 30 minutes. As for the experimental part:
(§1) The pharmacological activity of the compounds I according to the invention was investigated on isolated membrane material from rat cerebra. To do this, the membrane material was treated in the presence of the compounds according to the invention with the radiolabeled substances ^3 H-2-amino-3-hydroxy-5-methyl-4-isoxazolepropionic acid (^3 H-AMPA) and ^3 H-5,7-dichlorokynurenic acid, these binding to specific receptors (AMPA and NMDA (N-methyl-D-aspartate) receptors respectively). Subsequently the radioactivity on the treated membranes was measured by scintillation counting. The amounts of bound ^3 H-AMPA and ^3 H-5,7-dichlorokynurenic acid, or in each case the amounts of these radiolabeled substances displaced, were determined from the bound radioactivity. The dissociation constant KI (I=inhibitor) which results from this and which is a measure of the displacing effect of the active substance according to the invention was found by iterative non-linear regression analysis using the statistical analysis system (SAS) on an IBM computer similar to the "ligand" program of P. J. Munson and D. Rodbard (Analytical Biochem., […], Ligand: Versatile Computerized Approach for Characterization of Ligand Binding Systems).
2. Binding of ^3 H-5,7-dichlorokynurenic acid
To prepare the membrane material, freshly removed rat cerebra were homogenized together with about 10 times the volume of a buffer solution A composed of 50 mM TRIS-HCl and 10 mM EDTA, pH 7.4. The suspension was centrifuged at 48,000 g for 20 minutes. […]
For the binding assay, the protein material was thawed at 37° C. and washed twice by centrifuging at 48,000 g (20 minutes) and subsequently suspending in a buffer solution B composed of 50 mM TRIS-HCl, pH 7.4. […] The radioactivity of the ^3 H-5,7-dichlorokynurenic acid bound to the membranes in the sediment was measured, and the KI was obtained by subjecting the displacement plots to regression analysis.
Background: Displacement assays read how much labelled ligand stays bound in the presence of the test substance.
By pKi is commonly meant the Ki on a negative log10 scale, so that one unit is a factor of ten. The low end stands for a large Ki, the high end for a small Ki. In turn, `Cc1cc2nc(=O)n3[nH]c(C(=O)O)nc3c2cc1C` [8,9-Dimethyl-1,2,4-triazolo[1,5-c]-quinazolin-5-one-2-carboxylic acid] showed a negative logarithm of the Ki (pKi) of 7.05.

As to `O=C(O)c1nc2c3c(Cl)cc(Cl)cc3nc(=O)n2[nH]1` [8,10-Dichloro-1,2,4-triazolo[1,5-c]-quinazolin-5-one-2-carboxylic acid], the pKi was 6.70.

Take `CCOC(=O)c1nc2c3cc(C)c(C)cc3nc(=O)n2[nH]1` [Ethyl 8,9-dimethyl-1,2,4-triazolo-[1,5-c]-quinazolin-5-one-2-carboxylate]: the pKi is 6.80.

A further test deals with AMPA receptors. Kind of test: Binding of 3H-AMPA (displacement from rat cerebra membrane material). The following applies: displacement of 3H-AMPA, rat cerebra membranes, pH 7.1, on ice 60 minutes. As for the experimental part:
as §1
1. Binding of ^3 H-2-amino-3-hydroxy-5-methyl-4-isoxazolepropionic acid (^3 H-AMPA)
To prepare the membrane material, freshly removed rat cerebra were homogenized together with 15 times the volume of a buffer solution A composed of 30 mM α,α,α-tris(hydroxymethyl)methylamine hydrochloride (TRIS-HCl) and 0.5 mM ethylenediaminetetraacetic acid (EDTA), pH 7.4, using an Ultra-Turrax. […]
For the binding assay, the protein material was thawed at 37° C. and washed twice by centrifuging at 48,000 g (20 minutes) and subsequently suspending in a buffer solution B composed of 50 mM TRIS-HCl, 0.1M potassium thiocyanate and 2.5 mM calcium chloride, pH 7.1. […] The radioactivity of the bound ^3 H-AMPA in the membrane material was measured by scintillation counting and then the KI was determined by subjecting the displacement plots to regression analysis.
`O=C(O)c1nc2c3c(Cl)cc(Cl)cc3nc(=O)n2[nH]1` [8,10-Dichloro-1,2,4-triazolo[1,5-c]-quinazolin-5-one-2-carboxylic acid] had a negative logarithm of the Ki (pKi) of 5.89. `O=C(O)c1nc2c3ccc([N+](=O)[O-])cc3nc(=O)n2[nH]1` [8-Nitro-1,2,4-triazolo[1,5-c]-quinazolin-5-one-2-carboxylic acid] showed a pKi of 5.59. Still for that read-out and setting: in the case of `O=C(O)c1nc2c3ccc(C(F)(F)F)cc3nc(=O)n2[nH]1` [8-Trifluoromethyl-1,2,4-triazolo[1,5-c]-quinazolin-5-one-2-carboxylic acid] it was 5.85.

For the origin of these results see patent US5612344A, “Triazoloquinazolines for the treatment of central nervous disorders” (BASF Aktiengesellschaft, priority 1992, dated 1997).
